The target in series [1] is T1, NLRP3 (Homo sapiens, UniProt Q96P20). Description: Human whole blood IL-1β release assay. It is filed as cell-based. Details: Human whole blood in Li-heparin tubes was obtained from healthy donors; from tissue; host or cells: human whole blood from healthy donors. The following applies: LPS 1 μg/ml, nigericin 10 μM, IL-1β AlphaLisa. From the text: For systemic delivery, the ability to inhibit NLRP3 when the compounds are present within the bloodstream is of great importance.
T1 sequence (Q96P20 whole entry): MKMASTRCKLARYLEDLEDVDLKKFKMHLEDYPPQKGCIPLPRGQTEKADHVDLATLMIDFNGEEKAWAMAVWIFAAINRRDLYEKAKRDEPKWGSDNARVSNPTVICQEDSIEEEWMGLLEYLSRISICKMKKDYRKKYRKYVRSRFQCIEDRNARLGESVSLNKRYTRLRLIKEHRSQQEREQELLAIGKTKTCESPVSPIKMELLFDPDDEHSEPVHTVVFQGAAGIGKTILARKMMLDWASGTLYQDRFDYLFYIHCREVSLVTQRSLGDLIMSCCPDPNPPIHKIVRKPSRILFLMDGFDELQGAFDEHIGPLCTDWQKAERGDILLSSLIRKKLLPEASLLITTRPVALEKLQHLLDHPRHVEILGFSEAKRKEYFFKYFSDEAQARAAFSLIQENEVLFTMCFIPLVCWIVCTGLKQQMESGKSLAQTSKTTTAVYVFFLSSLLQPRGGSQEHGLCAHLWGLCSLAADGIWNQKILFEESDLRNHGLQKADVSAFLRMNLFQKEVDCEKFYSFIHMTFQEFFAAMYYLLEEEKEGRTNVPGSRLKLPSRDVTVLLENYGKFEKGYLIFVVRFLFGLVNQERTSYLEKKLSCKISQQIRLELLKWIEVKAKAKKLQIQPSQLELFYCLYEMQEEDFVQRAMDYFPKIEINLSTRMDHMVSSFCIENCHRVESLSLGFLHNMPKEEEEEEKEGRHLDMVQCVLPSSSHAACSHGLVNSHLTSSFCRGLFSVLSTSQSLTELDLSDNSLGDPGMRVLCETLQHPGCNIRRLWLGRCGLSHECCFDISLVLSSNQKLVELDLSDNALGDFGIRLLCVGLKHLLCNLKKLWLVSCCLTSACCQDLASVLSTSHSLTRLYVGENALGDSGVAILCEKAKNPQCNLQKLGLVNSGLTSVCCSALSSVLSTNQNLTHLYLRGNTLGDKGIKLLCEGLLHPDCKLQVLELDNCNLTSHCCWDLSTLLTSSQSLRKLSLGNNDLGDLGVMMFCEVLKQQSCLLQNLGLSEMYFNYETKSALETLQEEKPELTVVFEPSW
Background: Bead proximity is the source of the signal in Alpha formats.

In series [2] the target is T1, NLRP3. Description: THP-1 cells pyroptosis assay.
The target in the next series is T2, human P-gp (Homo sapiens, UniProt P08183).
T2 construct: expressed in transfected cells; host or cells: LLC-PK1 cells (porcine kidney epithelial cells)
T2 sequence (P08183 whole entry): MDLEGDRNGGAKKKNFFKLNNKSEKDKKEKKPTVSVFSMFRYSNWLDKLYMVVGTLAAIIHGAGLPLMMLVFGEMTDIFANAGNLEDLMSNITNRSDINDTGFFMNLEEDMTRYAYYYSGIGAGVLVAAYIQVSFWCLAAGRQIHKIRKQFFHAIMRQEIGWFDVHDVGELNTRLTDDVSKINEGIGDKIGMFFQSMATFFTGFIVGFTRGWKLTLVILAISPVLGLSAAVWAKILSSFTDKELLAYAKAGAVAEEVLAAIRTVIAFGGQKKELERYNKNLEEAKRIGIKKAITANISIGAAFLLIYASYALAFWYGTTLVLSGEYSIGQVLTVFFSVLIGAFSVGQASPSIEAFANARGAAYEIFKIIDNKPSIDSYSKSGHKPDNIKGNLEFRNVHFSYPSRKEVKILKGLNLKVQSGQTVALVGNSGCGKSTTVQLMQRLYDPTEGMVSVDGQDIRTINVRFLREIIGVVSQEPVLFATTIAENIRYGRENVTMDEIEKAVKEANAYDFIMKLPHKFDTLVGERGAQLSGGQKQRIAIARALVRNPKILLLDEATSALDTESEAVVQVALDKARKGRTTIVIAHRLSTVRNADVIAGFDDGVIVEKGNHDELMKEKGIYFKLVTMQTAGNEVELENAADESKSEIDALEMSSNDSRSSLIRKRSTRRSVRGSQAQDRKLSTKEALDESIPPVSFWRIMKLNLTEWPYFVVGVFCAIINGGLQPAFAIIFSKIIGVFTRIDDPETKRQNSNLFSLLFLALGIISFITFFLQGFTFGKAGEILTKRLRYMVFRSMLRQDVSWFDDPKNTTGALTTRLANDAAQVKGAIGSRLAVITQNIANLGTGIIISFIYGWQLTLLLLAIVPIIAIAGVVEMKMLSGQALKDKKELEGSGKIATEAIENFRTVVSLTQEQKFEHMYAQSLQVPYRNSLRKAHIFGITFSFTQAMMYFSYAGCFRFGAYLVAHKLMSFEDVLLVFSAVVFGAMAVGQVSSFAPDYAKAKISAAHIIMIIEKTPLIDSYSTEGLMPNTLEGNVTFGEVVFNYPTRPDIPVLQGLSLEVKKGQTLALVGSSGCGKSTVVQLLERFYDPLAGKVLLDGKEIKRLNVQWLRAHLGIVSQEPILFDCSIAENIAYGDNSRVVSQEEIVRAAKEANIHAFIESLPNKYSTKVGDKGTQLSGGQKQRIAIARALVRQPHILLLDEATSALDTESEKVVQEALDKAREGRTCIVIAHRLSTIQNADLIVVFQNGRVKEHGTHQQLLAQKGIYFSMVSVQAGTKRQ
The series is described as follows: Transcellular human P-gp assay (transfected LLC-PK1 cells). The following applies: LLC-PK1 cells over-expressing human P-gp. It is filed as in vitro ADME. From the text:
The general assay uses transfected LLC-PK1 cells (porcine kidney epithelial cells) over-expressing human or mouse P-gp, cultured on 96 well semi-permeable filter membrane plates, where they form a polarized monolayer with tight junctions, and act as a barrier between the apical and basolateral compartment.
P-gp is expressed in the apical-facing membrane of the monolayer.

For series [3], the target named is T3, hERG cardiac potassium channel (Homo sapiens, UniProt Q12809).
T3 construct: host or cells: CHO crelox hERG cell line (Chinese hamster)
T3 sequence (Q12809 whole entry): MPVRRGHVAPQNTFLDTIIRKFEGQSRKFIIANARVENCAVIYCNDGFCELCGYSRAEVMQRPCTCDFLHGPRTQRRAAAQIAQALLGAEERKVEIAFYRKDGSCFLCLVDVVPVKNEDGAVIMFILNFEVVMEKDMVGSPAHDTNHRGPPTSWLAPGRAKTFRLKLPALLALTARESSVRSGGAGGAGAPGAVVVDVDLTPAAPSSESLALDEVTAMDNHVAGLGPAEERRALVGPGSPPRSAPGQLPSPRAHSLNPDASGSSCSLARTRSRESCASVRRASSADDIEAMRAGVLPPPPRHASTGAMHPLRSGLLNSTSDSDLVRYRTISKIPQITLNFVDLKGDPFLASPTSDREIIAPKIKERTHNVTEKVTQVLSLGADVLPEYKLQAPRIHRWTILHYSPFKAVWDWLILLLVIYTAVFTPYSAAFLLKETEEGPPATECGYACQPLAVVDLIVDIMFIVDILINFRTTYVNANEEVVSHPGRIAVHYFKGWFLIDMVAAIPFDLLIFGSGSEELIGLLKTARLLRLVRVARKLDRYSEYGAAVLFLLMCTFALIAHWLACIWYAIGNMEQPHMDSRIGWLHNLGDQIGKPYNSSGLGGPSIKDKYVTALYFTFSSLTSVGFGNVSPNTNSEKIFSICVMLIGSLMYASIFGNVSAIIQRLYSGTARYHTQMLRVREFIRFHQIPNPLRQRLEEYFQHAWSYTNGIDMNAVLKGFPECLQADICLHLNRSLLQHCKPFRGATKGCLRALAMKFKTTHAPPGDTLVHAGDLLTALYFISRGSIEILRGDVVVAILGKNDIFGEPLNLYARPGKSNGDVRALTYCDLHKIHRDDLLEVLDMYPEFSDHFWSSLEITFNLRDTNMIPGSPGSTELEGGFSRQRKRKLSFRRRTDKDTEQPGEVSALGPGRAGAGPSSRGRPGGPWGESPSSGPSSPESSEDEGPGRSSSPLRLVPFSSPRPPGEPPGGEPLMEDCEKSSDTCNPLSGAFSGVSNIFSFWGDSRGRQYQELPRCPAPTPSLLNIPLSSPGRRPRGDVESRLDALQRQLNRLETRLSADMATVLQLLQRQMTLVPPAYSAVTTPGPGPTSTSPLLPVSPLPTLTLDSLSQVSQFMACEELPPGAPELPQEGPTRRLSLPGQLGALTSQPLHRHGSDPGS
Description: hERG screening assay (automated patch clamp, CHO crelox hERG cells). Format: cell-based. Particulars: whole-cell patch clamp, 35-37° C. An excerpt: In the drug development process of small molecules, one of the most frequent adverse side effects, leading to the failure of drugs, is the cardiac arrhythmias. […] Having no or low inhibition of the hERG cardiac potassium channel is therefore considered as beneficial.
Ready-to-use frozen instant CHO-hERG cells were cryopreserved at Evotec (Germany) and used directly in the experiments.
The extracellular solution contains (in mM): NaCl 150; KCl 4; CaCl2 1; MgCl2 1; HEPES 10; pH 7.2-7.4 with NaOH, osmolarity 290-330 mOsm. The internal solution contains (in mM): KCl, 10; KF, 100; NaCl, 10; HEPES, 10; EGTA, 20; pH=7.0-7.4 with KOH, osmolarity 260-300 mOsm.
The effects of a compound on hERG K+-currents parameters will be evaluated at 2 concentrations in at least 4 cells.
K+ currents are measured with the patch-voltage-clamp technique in the whole-cell configuration at 35-37° C.
The amplitudes of IKhERG were recorded in each concentration of drug and they were compared to the vehicle control values (taken as 100%) to define fractional blocks. The concentration-response data were fitted with the following relationship:
Concentration-response curves were fitted by non-linear regression analysis using EworkBook suite (ID Business Solutions Ltd, UK). Data fit was done with the 4 Parameter Logistic Model (fit=(A+(B/(1+((x/C)^D)))), where A=0 and B=100).

Where a name gives a salt, the structure may show the parent alone.

Take `Cc1nc(N[C@@H]2CCCN(CCCC(=O)N3CCC(O)C3)C2)nnc1-c1ccc2c(c1O)CCO2` (mixture of isomers) [Example 15, 1-(3-Hydroxypyrrolidin-1-yl)-4-[rac-(3R)-3-[[6-(4-hydroxy-2,3-dihydrobenzofuran-5-yl)-5-methyl-1,2,4-triazin-3-yl]amino]-1-piperidyl]butan-1-one; formic acid]: the values for the IC50 at NLRP3 [1] and against NLRP3 [2] were 33 nM and 58 nM, respectively.

Regarding `Cc1nc(N[C@@H]2CCCN(CC3(O)CC3)C2)nnc1-c1ccc2c(c1O)CCO2` [Example 4, 5-[3-[[(3R)-1-[(1-Hydroxycyclopropyl)methyl]-3-piperidyl]amino]-5-methyl-1,2,4-triazin-6-yl]-2,3-dihydrobenzofuran-4-ol], the figures for the IC50 at NLRP3 [1] and at NLRP3 [2] were 33 nM and 17 nM, respectively.

Turning to `COCCN1CCC[C@@H](Nc2nnc(-c3ccc4c(c3O)CCO4)c(C)n2)C1` [Example 5, 5-[3-[[(3R)-1-(2-Methoxyethyl)-3-piperidyl]amino]-5-methyl-1,2,4-triazin-6-yl]-2,3-dihydrobenzofuran-4-ol; formic acid salt], the results for the IC50 against NLRP3 [1] and against NLRP3 [2] were 15 nM and 19 nM, respectively.

Regarding `CCN1C[C@@H](O)C[C@@H](Nc2nnc(-c3ccc4c(c3O)CCO4)c(C)n2)C1` [Example 6, (3S,5R)-1-Ethyl-5-[[6-(4-hydroxy-2,3-dihydrobenzofuran-5-yl)-5-methyl-1,2,4-triazin-3-yl]amino]piperidin-3-ol], the IC50 (usually the midpoint of a concentration-inhibition curve) on NLRP3 [1] came to 23 nM; on NLRP3 [2], 28 nM.

On to `COC(C)CN1CCC[C@@H](Nc2nnc(-c3ccc4c(c3O)CCO4)c(C)n2)C1` (stereo partly drawn) [Example 7, 5-[5-Methyl-3-[[(3R)-1-(2-methoxypropyl)-3-piperidyl]amino]-1,2,4-triazin-6-yl]-2,3-dihydrobenzofuran-4-ol], for which the IC50 came to 40 nM on NLRP3 [1] and 62 nM against NLRP3 [2].

In turn, `Cc1nc(N[C@@H]2CCCN(C3COC3)C2)nnc1-c1ccc2c(c1O)CCO2` [Example 8, 5-[5-Methyl-3-[[(3R)-1-(oxetan-3-yl)-3-piperidyl]amino]-1,2,4-triazin-6-yl]-2,3-dihydrobenzofuran-4-ol] showed an IC50 against NLRP3 [2] of 120 nM.

Regarding `CNC(=O)CCCN1CCC[C@@H](Nc2nnc(-c3ccc4c(c3O)CCO4)c(C)n2)C1` [Example 10, 4-[(3R)-3-[[6-(4-hydroxy-2,3-dihydrobenzofuran-5-yl)-5-methyl-1,2,4-triazin-3-yl]amino]-1-piperidyl]-N-methyl-butanamide], the values for the half-inhibitory concentration (IC50) against NLRP3 [1] and on NLRP3 [2] were 40 nM and 27 nM, respectively. Moreover, on human P-gp (read-out: ER (efflux ratio)), the efflux ratio was determined as 8.5. Besides, the Papp on human P-gp (read-out: Permeability) came to 12.2 ×10⁻⁶ cm/s. Further, the 20% effect level in series [3] (IC20) was put at 2900 nM.

With `Cc1nc(N[C@@H]2CCCN(CCCC(=O)N(C)C)C2)nnc1-c1ccc2c(c1O)CCO2` [Example 12, 4-[(3R)-3-[[6-(4-Hydroxy-2,3-dihydrobenzofuran-5-yl)-5-methyl-1,2,4-triazin-3-yl]amino]-1-piperidyl]-N,N-dimethyl-butanamide], the values for the IC50 against NLRP3 [1] and against NLRP3 [2] were 30 nM and 53 nM, respectively.

`Cc1nc(N[C@@H]2CCCN(CCCC(=O)N(C)CCO)C2)nnc1-c1ccc2c(c1O)CCO2` [Example 14] registered an IC50 against NLRP3 [2] of 76 nM.

For the compound `Cc1nc(N[C@@H]2CCCN(CCCC(=O)N3CCOCC3)C2)nnc1-c1ccc2c(c1O)CCO2` [Example 16, 4-[(3R)-3-[[6-(4-Hydroxy-2,3-dihydrobenzofuran-5-yl)-5-methyl-1,2,4-triazin-3-yl]amino]-1-piperidyl]-1-morpholino-butan-1-one], the IC50 turned out to be 46 nM against NLRP3 [1] and 40 nM against NLRP3 [2].

Regarding `Cc1nc(N[C@@H]2CCCN(CCn3cccn3)C2)nnc1-c1ccc2c(c1O)CCO2` [Example 17, 5-[5-Methyl-3-[[(3R)-1-(2-pyrazol-1-ylethyl)-3-piperidyl]amino]-1,2,4-triazin-6-yl]-2,3-dihydrobenzofuran-4-ol], the IC50 at NLRP3 [1] came to 76 nM; at NLRP3 [2], 35 nM.

As to `Cc1nc(N[C@@H]2CCCN(CCCc3nnn[nH]3)C2)nnc1-c1ccc2c(c1O)CCO2` [Example 18, 5-[5-Methyl-3-[[(3R)-1-[3-(1H-tetrazol-5-yl)propyl]-3-piperidyl]amino]-1,2,4-triazin-6-yl]-2,3-dihydrobenzofuran-4-ol; formic acid], the IC50 on NLRP3 [1] and on NLRP3 [2] was 23 nM each time.

As to `Cc1nc(N[C@@H]2CCCN(CCCC#N)C2)nnc1-c1ccc2c(c1O)CCO2` [Example 19, 4-[(3R)-3-[[6-(4-Hydroxy-2,3-dihydrobenzofuran-5-yl)-5-methyl-1,2,4-triazin-3-yl]amino]-1-piperidyl]butanenitrile], the 50% inhibitory concentration (IC50) came out at 26 nM on NLRP3 [1] and 20 nM against NLRP3 [2].

Regarding `Cc1nc(N[C@@H]2CCCN(CCCc3ncco3)C2)nnc1-c1ccc2c(c1O)CCO2` [Example 20, 5-[5-Methyl-3-[[(3R)-1-(3-oxazol-2-ylpropyl)-3-piperidyl]amino]-1,2,4-triazin-6-yl]-2,3-dihydrobenzofuran-4-ol], the results for the IC50 on NLRP3 [1] and on NLRP3 [2] were 18 nM and 16 nM, respectively.

With `Cc1nc(N[C@@H]2CCCN(CCc3nnn[nH]3)C2)nnc1-c1ccc2c(c1O)CCO2` [Example 21, 5-[5-Methyl-3-[[(3R)-1-[2-(1H-tetrazol-5-yl)ethyl]-3-piperidyl]amino]-1,2,4-triazin-6-yl]-2,3-dihydrobenzofuran-4-ol], the IC50 came out at 166 nM at NLRP3 [1] and 20 nM on NLRP3 [2].

As to `Cc1nc(N[C@@H]2CCCN(CCCS(C)(=O)=O)C2)nnc1-c1ccc2c(c1O)CCO2` [Example 22, 5-[5-Methyl-3-[[(3R)-1-(3-methylsulfonylpropyl)-3-piperidyl]amino]-1,2,4-triazin-6-yl]-2,3-dihydrobenzofuran-4-ol], the IC50 on NLRP3 [1] turned out to be 54 nM; at NLRP3 [2] it was 58 nM.

For the origin of these results see US20260200901A1, “NOVEL COMPOUNDS AS MODULATORS OF NLRP3 INHIBITION” (Hoffmann-La Roche Inc., priority 2022, published 2026).
